Measurements as given in patent US9993462B2, “Hydantoin derivative-containing pharmaceutical composition” (Chugai Seiyaku Kabushiki Kaisha, priority 2014, dated 2018).

Experiments:
human PTH1R = target: T1, human PTH1R (Homo sapiens, UniProt Q03431); assay: In vitro cAMP signal activity via the human PTH1R (HKRK-B7 cells); type: cell-based; details: concentration at 20% cAMP signaling activity, human PTH(1-34) at 100 nM = 100%
T1 construct: expressed in transfected cells; host or cells: HKRK-B7 (LLC-PK1 porcine kidney cells stably expressing human PTH1R)
T1 sequence (Q03431 27-593): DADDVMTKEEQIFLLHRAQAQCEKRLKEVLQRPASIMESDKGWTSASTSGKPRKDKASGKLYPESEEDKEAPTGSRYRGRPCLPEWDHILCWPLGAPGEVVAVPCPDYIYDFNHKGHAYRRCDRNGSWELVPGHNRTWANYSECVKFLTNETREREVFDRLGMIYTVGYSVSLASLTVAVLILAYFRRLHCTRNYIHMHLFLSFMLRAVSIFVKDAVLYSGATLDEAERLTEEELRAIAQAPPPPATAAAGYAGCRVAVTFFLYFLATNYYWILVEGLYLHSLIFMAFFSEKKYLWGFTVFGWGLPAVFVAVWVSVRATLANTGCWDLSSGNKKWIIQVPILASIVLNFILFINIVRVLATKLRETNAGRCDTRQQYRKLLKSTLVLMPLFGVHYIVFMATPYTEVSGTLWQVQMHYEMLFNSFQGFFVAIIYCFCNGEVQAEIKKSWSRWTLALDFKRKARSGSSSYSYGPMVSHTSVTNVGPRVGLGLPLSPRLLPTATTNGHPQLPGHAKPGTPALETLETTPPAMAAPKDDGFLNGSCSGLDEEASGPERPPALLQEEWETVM
Experimental: Human PTH(1-34) and calcitonin were purchased from Peptide Institute, Inc. (Osaka, Japan), dissolved in 10 mM acetic acid to 1 mM and stored in a −80° C. freezer.
Cells were cultured in Dulbecco's modified Eagle's medium (DMEM) supplemented with 10% fetal bovine serum (Hyclone), 100 units/ml penicillin G and 100 μg/ml streptomycin sulfate (Invitrogen Corp) at 37° C. in a humidified atmosphere containing 5% CO2.
cAMP signal transduction analysis utilized LLC-PK1 cells not expressing the PTH1R, and HKRK-B7 cells, that is, LLC-PK1 cells overexpressing the human PTH1R at 9.5×10^5 receptors/cell (Takasu et al., J. Bone. Miner. Res. 14:11-20, 1999).
HKRK-B7 or LLC-PK1 cells were seeded into a 96-well plate at 1×10^5 cells/well and incubated overnight. On the following day, 50 μl of cAMP assay buffer (DMEM, 2 mM IBMX, 0.2 mg/ml bovine serum albumin, 35 mM Hepes-NaOH, pH 7.4) containing human PTH(1-34) or each compound was added and the plate was placed in a 37° C. incubator. The cells were incubated for 20 minutes. After removing the medium, the cells were washed with 100 μl of cAMP assay buffer once. The plate was placed on dry ice powder to freeze the cells and then removed from the dry ice. The cells were lysed with 40 μl of 50 mM HCl and frozen again on dry ice. The amount of intracellular cAMP produced was measured using a commercially available cAMP EIA kit (Biotrack cAMP EIA system, GE health care).
Analyses were performed using a variable gradient S-shaped dose-response curve equation.

[1] = system: rabbit articular chondrocytes; assay: Suppression of terminal differentiation of rabbit articular chondrocytes (alkaline phosphatase and alizarin red staining); type: cell-based; details: BMP-2 100 ng/mL, Compound 7 10^−7 to 10^−5 mol/L, PTH(1-34) 10^−10 to 10^−7 mol/L
Experimental: NZW rabbits (4-week old, Oriental Yeast Co., Ltd.) were euthanized, and then the articular cartilage of the lower leg bone was collected, and transferred to a 50-mL test tube (Nippon Becton Dickinson Company). PBS (Nacalai Tesque, Inc.) containing 1% trypsin (Wako Pure Chemical Industries, Ltd.) was added to this, and the soft tissue was digested at 37° C. for one hour. This was followed by centrifugation at 1,200 rpm for five minutes, then supernatant was removed and PBS(−) was added to suspend the cartilage tissue. This was centrifuged at 1,200 rpm for five minutes, followed by removal of the supernatant, and washed three times by suspending in PBS(−). This was centrifuged at 1,200 rpm for five minutes, and then the cell pellet was digested by treatment with DMEM (Life Technologies Japan, Ltd.) containing 0.2% Type II collagenase (CLS-2, Worthington Biochemical Corp.) at 37° C. for three hours. Fetal bovine serum (Life Technologies Japan, Ltd.) was added at 10% v/v to stop the reaction, and this was vigorously pipetted using a 10-mL pipette (Nippon Becton Dickinson Company) to isolate the chondrocytes. This was centrifuged at 1,200 rpm for five minutes, followed by removal of the supernatant, and washed three times by suspending in 10% FCS-containing DMEM, and the chondrocytes were seeded at 1×10^4 cells/well on an I-type collagen-coated 96-well culture plate (AGC TECHNO GLASS CO., LTD.). Medium exchange was performed three times a week; and after the cells reached confluency, they were cultured in DMEM containing 100 μg/mL L-ascorbic acid phosphate magnesium salt n-hydrate (Wako Pure Chemical Industries, Ltd.), 10 mmol/L β-glycerophosphate pentahydrate (Wako Pure Chemical Industries, Ltd.) and 10% FCS. The following conditions were used to culture the cells, and alkaline phosphatase staining (cultured for 14 days) and alizarin red staining (cultured for 21 days) were performed to evaluate terminal differentiation of chondrocytes.
Alkaline phosphatase staining was performed by discarding the medium, then washing the chondrocytes once with 200 mmol/L Tris-HCl pH8.2 buffer, staining the cells according to the protocol supplied with the alkaline phosphatase staining kit (Vector Red Alkaline Phosphatase Substrate Kit I, Vector Laboratories, Inc.), and taking photographs with an inverted microscope (Nikon Corporation) (4× objective).
Alizarin red staining was performed by discarding the medium, then washing the chondrocytes twice with PBS, fixing the cells using 100% ethanol (Wako Pure Chemical Industries Ltd.) for 15 minutes, discarding the ethanol, and then staining with 1% alizarin red S (Wako Pure Chemical Industries Ltd.) for 15 minutes, followed by washing with distilled water; and photographs were taken with an inverted microscope.

ovariectomized rats = assay: Bone mineral density after six weeks of repeated administration to ovariectomized rats; type: in vivo, rat; details: once a day for six weeks, Compound 7 30 mg/kg oral
Experimental: Female Crl:CD(SD) rats obtained from Charles River Japan, Inc. were acclimated for one week or longer under standard laboratory conditions of 20° C. to 26° C. and 35% to 75% humidity, and then used in experiments. The rats had free access to tap water and a standard rodent diet (CE-2) (Clea Japan Inc.) containing 1.1% calcium, 1.0% phosphoric acid, and 250 IU/100 g vitamin D3.
Twelve-week old rats were subjected to removal of both ovaries by surgery (OVX) or to sham surgery (Sham). After the body weight was determined in the fourth week after surgery, the rats were divided into groups so that the average body weight of each group of six rats would be even. From the subsequent day after group division, each rat was subjected to repeated administration once a day for six weeks. The solvent for oral administration (vehicle) and the solvent for subcutaneous administration (PC buffer) were respectively administered orally and subcutaneously to rats of the Sham-Control group. Vehicle and PC buffer were orally and subcutaneously administered to rats of the OVX-Control group, respectively. To rats of OVX-Compound 7, the above-mentioned Compound 7 dissolved in the vehicle was orally administered at a dose of 30 mg/kg, and PC buffer was administered subcutaneously. To rats of the OVX-hPTH(1-34) group, the vehicle was orally administered, and hPTH(1-34) dissolved in PC buffer was subcutaneously administered at a dose of 0.9 nmol/kg.
The level of AUC (area under the curve for blood concentration vs. time) was the same as when 20 μg of Forteo®, a therapeutic agent clinically used for osteoporosis, is administered to humans when the administration dose for rats was set to 0.9 nmol/kg. The administration doses were 5 mL/kg for oral administration and 1 mL/kg for subcutaneous administration in all groups. The vehicle used was a composition prepared from 10% dimethyl sulfoxide (Wako Pure Chemical Industries, Ltd.), 10% Kolliphor EL (Sigma-Aldrich Japan), and 10% hydroxypropyl-β-cyclodextrin (Nihon Shokuhin Kako Co., Ltd), whose pH was adjusted to 10 using glycine (Wako Pure Chemical Industries, Ltd.) and sodium hydroxide (Wako Pure Chemical Industries, Ltd.). The PC buffer used was a composition prepared from 25 mmol/L phosphate-citrate buffer, 100 mmol/L NaCl, and 0.05% Tween80, adjusted to pH 5.0. […] The bone mineral densities of the lumbar spine and femur were determined using a dual X-ray bone mineral scanner (DCS-600EX, Aloka). The lumbar spine bone mineral density was determined by measuring the second to fourth lumbar vertebrae; and the femur bone mineral density was determined by vertically dividing the femur into ten parts, and measuring the three parts at the distal end of the knees. […]

In the case of Cc1cc(N2C(=O)NC(=O)C2(C)C)cc(C)c1CCS(=O)(=O)N1CCC2(CC1)N=C(c1ccc(OC(F)(F)F)cc1)NC2=O [Compound 7, 1-(3,5-dimethyl-4-(2-((4-oxo-2-(4-(trifluoromethoxy)phenyl)-1,3,8-triazaspiro[4.5]deca-1-en-8-yl)sulfonyl)ethyl)phenyl)-5,5-dimethylimidazolidine-2,4-dione], the EC20 (human PTH1R) is reported as 1.1 µM, the “alkaline phosphatase activity (alkaline phosphatase staining)” value ([1]; cultured for 14 days) is reported as “suppressed alkaline phosphatase activity in a concentration-dependent manner” and the “alizarin red staining property (calcification)” value ([1]; cultured for 21 days) is reported as “suppressed the alizarin staining property in a concentration-dependent manner”. The “lumbar spine bone mineral density with respect to the OVX-Control group (in words)” value (ovariectomized rats) was “increasing trend” and the “percentage of increase in femur bone mineral density with respect to the OVX-Control group” value (ovariectomized rats; hPTH(1-34) 0.9 nmol/kg subcutaneous) was 12%.
